SMILES strings stand for the structures. Where two headings read alike, the source gives them in different places.

By LD50 is commonly meant the dose at which mortality reaches 50%.

For data set [1], the target named is T1, prostaglandin dehydrogenase (PGDH) (Sus scrofa, UniProt A0ACM8QJV0).
T1 construct: on a PGDH preparation from pig lung; from tissue; host or cells: pig lung
T1 sequence (A0ACM8QJV0 1-266): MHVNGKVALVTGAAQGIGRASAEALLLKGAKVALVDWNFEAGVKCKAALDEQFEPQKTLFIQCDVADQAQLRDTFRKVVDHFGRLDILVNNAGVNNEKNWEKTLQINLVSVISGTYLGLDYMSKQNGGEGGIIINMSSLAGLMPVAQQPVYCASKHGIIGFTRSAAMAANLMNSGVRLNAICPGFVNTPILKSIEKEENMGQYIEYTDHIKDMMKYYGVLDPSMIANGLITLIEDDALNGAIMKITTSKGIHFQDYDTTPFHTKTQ
As to the kind of experiment: Prostaglandin dehydrogenase (PGDH) inhibiting action, method of Marrazzi and Matschinsky, PGDH preparation from pig lung. In kind it is biochemical. From the text: (§1) The I50%, i.e. the index of inhibition, is defined as the concentration of the substance inhibiting to 50% the function of the corresponding enzyme.

Data set [2] concerns the target prostaglandin-A isomerase (PGAI). Put plainly: Prostaglandin-A isomerase (PGAI) inhibiting action, method of Jones et al., PGAI preparation from blood plasma of pigs. Format: biochemical. Particulars: concentration inhibiting enzyme function to 50%; PGAI from pig blood plasma; read-out: I50% inhibiting level in final concentration, PGAI.
Text: as §1

The test system of data set [3] is cats. As to the kind of experiment: Hypotensive action in narcotized cats (decrease in blood pressure). In kind it is in vivo. The note with it: cats narcotized i.p. by 30 mg/kg Pentobarbital.
Data set [4] is described as follows: in vivo. Particulars: mouse, po.
Data set [5] can be described thus: Tachycardia (inability to cause, compared with Hydralazine). In kind it is in vivo. Particulars: against Hydralazine.
For data set [6], the system named is spontaneously hypertensive (Wistar-Okamoto) rats. Put plainly: Hypotensive action in spontaneously hypertensive rats, systolic blood pressure in caudal artery by indirect method after oral treatment. In kind it is in vivo. Particulars: dose equal to Hydralazine. The procedure:
The hypotensive action of substance 44 was studied also in spontaneously hypertensive (Wistar-Okamoto(rats)Arzneim.- forsch. 6, 222, 1956): the systolic blood pressure was measured in the caudal artery by an indirect method, after oral treatment.

The subject of data set [7] is prostaglandin dehydrogenase and prostaglandin-A isomerase. Put plainly: Inhibition of enzymes regulating prostaglandin catabolism (prostaglandin dehydrogenase and prostaglandin-A isomerase), in words. In kind it is biochemical. The procedure:
The prostaglandin-A isomerase (PGAI) inhibiting action of the compounds according to the invention was measured by the method of Jones et al. (Biochim. Biophys. Acta 280, 558, 1972) on a PGAI preparation from the blood plasma of pigs, whereas the prostaglandin dehydrogenase (PGDH) inhibiting action was determined by the method of Marrazzi and Matschinsky (Prostaglandins 1, 373, 1972); on a PGDH preparation from pig lung.

The subject of data set [8] is mice. The note with it: against Hydralazine.
The mark [9] stands for this setting: concentration inhibiting enzyme function to 50%, PGDH from pig lung, read-out: I50% inhibiting level in final concentration, PGDH.

In the case of `C[C@]12CC[C@@H]3c4ccc(O)cc4CC[C@H]3[C@@H]1CCC2=O` [Estrone, reference compound], the IC50 in data set [1] came to 10 µM.

On to `Cc1cc(C)n(-c2ccc(NCc3ccccc3)nn2)n1` [Example 17, 3-Benzylamino-6-(3,5-dimethyl-1-pyrazolyl)-pyridazine], for which the IC50 in data set [1] (setting [9]) stood at 200 µM.

For the compound `Cc1cc(C)n(-c2ccc(N(C)C)nn2)n1` [Example 19, 3-Dimethylamino-6-(3,5-dimethyl-1-pyrizolyl)-pyridazine], the IC50 in data set [2] was determined as 130 µM.

As to `c1ccc(CNc2ccc(-n3nc(-c4ccccc4)cc3-c3ccccc3)nn2)cc1` [Example 21, 3-Benzylamino-6-(3,5-diphenyl-1-pyrazolyl)-pyridazine], the IC50 in data set [2] came out at 20 µM.

For `Cc1cc(C)n(-c2ccc(NN)nn2)n1` [Example 25, 3-hydrazino-6-(3,5-dimethyl-1-pyrazolyl)-pyridazine], the “Decrease in blood pressure by 1 mg/kg” value in data set [3] is -30 Hgmm. The IC50 in data set [2] worked out at 25 µM. The LD50 in data set [4] came to 200 mg/kg.

In the case of `NNc1ccc(-n2nc(C3CC3)cc2C2CC2)nn1` [Example 26, 3-Hydrazino-6-(3,5-dicyclopropyl-1-pyrazolyl)-pyridazine], the “Decrease in blood pressure by 1 mg/kg” value in data set [3] is -40 Hgmm. The 50% lethal dose (LD50) in data set [4] is 100 mg/kg.

Consider `CCc1cc(CC)n(-c2ccc(NN)nn2)n1` [Example 29, 3-Hydrazino-6-(3,5-diethyl-1-pyrazolyl)-pridazine], for which the “Decrease in blood pressure by 1 mg/kg” value in data set [3] is -40 Hgmm. Further, the 50% lethal dose (LD50) in data set [4] was about 150 mg/kg.

For `Cc1nn(-c2ccc(NN)nn2)c(C)c1C` [Example 31, 3-Hydrazino-6-(3,4,5-trimethyl-1-pyrazolyl)-pridazine], the “Decrease in blood pressure by 1 mg/kg” value in data set [3] was -15 Hgmm. Moreover, the IC50 in data set [2] is 60 µM. For the same compound, in data set [4], the LD50 is 100 mg/kg.

For `Cc1nn(-c2ccc(NN)nn2)c(C)c1Cl` [Example 34, 3-Hydrazino-6-(3,5-dimethyl-4-chloro-1-pyrazolyl)-pyridazine], in data set [3], the “Decrease in blood pressure by 1 mg/kg” value is listed as -20 Hgmm. In addition, the IC50 in data set [1] (setting [9]) came out at 110 µM. This compound also came in with an LD50 in data set [4] of over 200 mg/kg.

In the case of `Cc1nn(-c2ccc(NN)nn2)c(C)c1Br` [Example 35, 3-Hydrazini-6-(3,5-dimethyl-4-bromo-1-pyrazolyl)-pyridazine], the IC50 in data set [2] worked out at 80 µM.

With `NNc1ccc(-n2nccc2N)nn1` [Example 40, 3-Hydrazino-6-(5-amino-1-pyrazolyl)-pyridazine], the “Decrease in blood pressure by 1 mg/kg” value in data set [3] is -30 Hgmm. The LD50 in data set [4] came out at 200 mg/kg.

Consider `Cc1nn(-c2ccc(NN)nn2)c(C)c1N` [Example 44, 3-hydrazino-6-(3,5-dimethyl-4-amino-1-pyrazolyl)-pyridazine], for which, in data set [3], the Decrease in blood pressure by 1 mg/kg is -40 Hgmm. The Tachycardia result in data set [5] is given as “inability to cause tachycardia”. Besides, in data set [6], the “Duration of effect compared with Hydralazine at equal dose” value is “same duration of effect” and the “Effectivity (systolic blood pressure) compared with Hydralazine at equal dose” value is reported as “same effectivity”. Also, the “Prostaglandin catabolism inhibiting effect” value in data set [7] is “prostaglandin catabolism inhibiting effect”. Besides, the “Toxicity compared with Hydralazine” value in data set [8] was “extraordinarily favorable toxicity”. The IC50 in data set [2] is 70 µM. Also, the LD50 in data set [4] is over 200 mg/kg.

In the case of `NNc1ccc(-n2cc(N)cn2)nn1` [Example 45, 3-Hydrazino-6-(4-amino-1-pyrazolyl)-pyridazine], the “Decrease in blood pressure by 1 mg/kg” value in data set [3] was -30 Hgmm. Moreover, in data set [4], the LD50 turned out to be 200 mg/kg.

As for `CCc1nn(-c2ccc(NN)nn2)c(CC)c1N` [Example 46, 3-Hydrazino-6-(3,5-diethyl-4-amino-1-pyrazolyl)-pyridazine], in data set [3], the “Decrease in blood pressure by 1 mg/kg” value was -50 Hgmm. The 50% lethal dose (LD50) in data set [4] came out at 200 mg/kg.

For `Cc1nn(-c2ccc(NNC(=O)OC(C)(C)C)nn2)c(C)c1N` [Example 56, 3-(2-tert-butoxycarbonyl-1-hydrazino)-6-(3,5-dimethyl-4-amino-1-pyrazolyl)-pyridazine], in data set [3], the “Decrease in blood pressure by 1 mg/kg” value is -35 Hgmm. In addition, in data set [4], the LD50 worked out at 200 mg/kg.

With `Cl.NNc1nncc2ccccc12` [Hydralazine, 1-hydrazinophthalazine hydrochloride, reference compound], the “Decrease in blood pressure by 1 mg/kg” value in data set [3] is listed as -40 Hgmm. Besides, in data set [2], the IC50 was found to be 90 µM. This compound registered an LD50 in data set [4] of 200 mg/kg.
